From the RepoRT retention time repository (doi:10.1002/minf.201400016)

test: RP, Waters ACQUITY UPLC HSS T3, 150 × 2.1 mm, 1.7 µm, 30 °C, 0.4 mL/min, estimated dead time 0.83 min; A: water + 0.2% formic acid; B: 2% water + 98% acetonitrile + 0.2% formic acid; gradient (min/%B) 0/0 2.5/0 7.5/10 10/100 12/100 18/0 25/0; details: stereoisomer not certain

LC retention time	Compound
1.73 min	OCC1OC(OCC2OC(O)C(O)C(O)C2O)C(O)C(O)C1O (configuration not stated) [gentiobiose]
9.53 min	COc1cc(C=O)ccc1O [vanillin]
8.57 min	COc1ccc2ncccc2c1 [6-methoxyquinoline]
1.55 min	NC(=O)NCCCC(N)C(=O)O (configuration not stated) [citrulline]
7.57 min	CC(=CCNc1ncnc2nc[nH]c12)CO [trans-zeatin]
5.54 min	Nc1cccc(C(=O)O)c1 [3-aminobenzoic acid]
9.98 min	O=c1c(O)c(-c2ccc(O)cc2)oc2cc(O)cc(O)c12 [kaempferol]
10.2 min	c1ccc2[nH]ccc2c1 [1H-indole]
9.17 min	Cn1cc(CC(N)C(=O)O)c2ccccc21 (configuration not stated) [1-methyltryptophan]
1.73 min	NC(CCCC(=O)O)C(=O)O (configuration not stated) [2-aminoadipic acid]
8.14 min	O=C(O)CCCCC(=O)O [adipic acid]
1.55 min	C[N+](C)(C)CC(=O)[O-] [glycine betaine]
1.63 min	NC(=O)NC1NC(=O)NC1=O (configuration not stated) [allantoin]
1.74 min	NCCCCCCCCN [1-8-diaminooctane]
10.6 min	CCC=CCC1C(=O)CCC1CC(=O)OC (configuration not stated) [methyl jasmonate]
1.49 min	O=C(COP(=O)(O)O)[C@@H](O)[C@H](O)[C@H](O)CO [D-fructose 1-phosphate]
9.39 min	CC(C)CC(=O)C(=O)O [4-methyl-2-oxopentanoic acid]
10.9 min	C=C1C(=O)OC2C1CCC(=C)C1CCC(=C)C12 (configuration not stated) [dehydrocostus lactone]
8.32 min	CSC[C@H]1O[C@@H](n2cnc3c(N)ncnc32)[C@H](O)[C@@H]1O [5'-S-methyl-5'-thioadenosine]
1.73 min	O=C(O)C1CCCN1 (configuration not stated) [proline]

LC retention time	Compound
9.92 min	O=c1cc(-c2ccc(O)cc2)oc2cc(O)cc(O)c12 [apigenin]
9.27 min	COc1cc(C(=O)O)ccc1O [vanillic acid]
9.31 min	O=C(O)c1cccc(O)c1 [3-hydroxybenzoic acid]
5.75 min	Cn1c[n+](C2OC(CO)C(O)C2O)c2nc(N)[nH]c(=O)c21 (configuration not stated) [7-methylguanosine]
9.71 min	O=C(O)Cn1ccc2ccccc21 [1H-indole-1-acetic acid]
1.26 min	NCCSCC(N)C(=O)O [L-thialysine]
9.79 min	O=c1c(O)c(-c2ccc(O)c(O)c2)oc2cc(O)cc(O)c12 [quercetin]
5.17 min	CC(O)(CC(=O)O)C(=O)O (configuration not stated) [citramalic acid]
8.91 min	CC(=CCNc1ncnc2c1ncn2C1OC(CO)C(O)C1O)CO (stereo not drawn) [9-ribosyl-trans-zeatin]
9.4 min	O=Cc1ccc(O)cc1 [4-hydroxybenzaldehyde]
9.54 min	O=C(O)C=Cc1cccc(O)c1 [3-coumaric acid]
10.7 min	Cc1cc(O)c2c(c1)C(=O)c1cc(O)cc(O)c1C2=O [emodin]
1.23 min	NCCCC[C@H](N)C(=O)O [L-lysine]
9.23 min	CCC(C)C(=O)C(=O)O (configuration not stated) [3-methyl-2-oxovaleric acid]
12.4 min	CCCCCCCCCCCCCCCC[C@@H](O)C(=O)O [(R)-2-hydroxystearic acid]
1.55 min	O=C[C@@H](O)[C@H](O)[C@H](O)[C@H](O)CO [D-altrose]
1.62 min	Nc1ccnc(=O)[nH]1 [cytosine]
1.73 min	C[n+]1cccc(C(=O)[O-])c1 [N-methylnicotinate]
3.33 min	NC(=O)c1cccnc1 [nicotinamide]

Compound	LC retention time
O=c1ccc2cc(OC3OC(CO)C(O)C(O)C3O)c(O)cc2o1 (configuration not stated) [esculin hydrate]	8.95 min
Cc1cc(Cl)ccc1OCC(=O)O [(4-chloro-2-methylphenoxy)acetic acid]	10.3 min
Oc1cccc2cccnc12 [quinolin-8-ol]	7.14 min
